Like-named read-outs stand apart in the source and are kept apart here.

For series [1] the following is noted: Wistar rat, single intramuscular injection 45.6 mg/kg; for AUC(0-t), Mean / AUC(0-∞), Mean / Cmax, Mean / MRT(0-∞), Mean / Tmax, Mean / t1/2z, Mean: non-compartment model. On the procedure:
Weighing 75.1 mg of each of crystal forms A, B and D of vortioxetine semi pamoic acid, adding 1 mL diluent (water for Injection containing 1% CMC-Na and 5% mannitol) to each of them, and whirling for 2 min to obtain 3 suspensions (pH˜7) of 3 crystal forms with a concentration of 45.6 mg/mL.
Drugs are administered to 9 male clean Wistar rats (Shanghai Sippr BK Laboratory Animals Ltd) with a weight range of 183.0˜186.3 g in accordance with Table 4.
Collecting blood samples by jugular puncture, about 0.2 mL for each sample, resisting against blood coagulation using heparin sodium, placing the collected blood samples on ice, wherein the blood collecting time is as follows: 30 min, 1 hrs, 2 hrs, 4 hrs, 8 hrs, 24 hrs, 48 hrs, 72 hrs, 120 hrs, 168 hrs, 216 hrs, 264 hrs, 312 hrs, 360 hrs, 504 hrs, and 672 hrs […] after administration of drug; placing the collected blood samples on ice, and separating the blood plasma centrifugally (centrifugal condition: 8,000 revolutions/min, 6 minutes, 2-8° C.); storing the collected blood plasma at −70° C. before analysis.
Separately calculating the pharmacokinetic parameters AUC0-t, AUC0-∞, MRT0-∞, Cmax, Tmax, T1/2 etc. of the tested samples using a non-compartment model for pharmacokinetic calculation software WinNonlin5.2 according to the blood concentration data of the drug. For samples with a concentration lower than the quantitative lower limit, when the pharmacokinetic parameters are calculated, the samples sampled before reaching Cmax should be calculated at zero value; after reaching Cmax, the samples at the sample point should be calculated by “below the limit of quantitation” (BLQ).

For series [2] the following is noted: single dose of vortioxetine injected to the body of the rat; FDA pharmacological summary document No. 204447Orig 1s000; cited from earlier work.

`Cc1ccc(Sc2ccccc2N2CCNCC2)c(C)c1.Cc1ccc(Sc2ccccc2N2CCNCC2)c(C)c1.O=C(O)c1cc2ccccc2c(Cc2c(O)c(C(=O)O)cc3ccccc23)c1O` [Crystal form A of vortioxetine semi pamoic acid salt] [Crystal Form a Vortioxetine Semi Pamoic Acid Salt]: the “Concentration of vortioxetine in plasma, Mean” value (shortened to “Concentration of vortioxetine”) in series [1] (blood sampling time 0.5 h) was 3.12 ng/mL; in series [1] (blood sampling time 1 h) it was 5.80 ng/mL; in series [1] (blood sampling time 2 h), 8.41 ng/mL; in series [1] (blood sampling time 4 h), 10.75 ng/mL; in series [1] (blood sampling time 8 h), 16.22 ng/mL; in series [1] (blood sampling time 24 h) it was 15.77 ng/mL. The “Concentration of vortioxetine” value in series [1] (blood sampling time 48 h) worked out at 8.70 ng/mL; in series [1] (blood sampling time 72 h), 11.68 ng/mL; in series [1] (blood sampling time 120 h), 35.38 ng/mL; in series [1] (blood sampling time 168 h) it was 31.34 ng/mL; in series [1] (blood sampling time 216 h), 13.35 ng/mL; in series [1] (blood sampling time 264 h), 6.29 ng/mL. Also, the “Concentration of vortioxetine” value in series [1] (blood sampling time 312 h) was determined as 4.07 ng/mL; in series [1] (blood sampling time 360 h), 2.26 ng/mL; in series [1] (blood sampling time 504 h) it was 1.73 ng/mL; in series [1] (blood sampling time 672 h), 1.88 ng/mL. The “AUC(0-t), Mean” value in series [1] was determined as 6143.08 ng·h/mL. Besides, the “AUC(0-∞), Mean” value in series [1] was found to be 6503.21 ng·h/mL. In series [1], the “Cmax, Mean” value was found to be 38.18 ng/mL. For the same compound, in series [1], the “MRT(0-∞), Mean” value was 227.18 h. Further, the “Tmax, Mean” value in series [1] was determined as 136.00 h. Also, the “t1/2z, Mean” value in series [1] stood at 126.06 h.
Consider `Cc1ccc(Sc2ccccc2N2CCNCC2)c(C)c1.Cc1ccc(Sc2ccccc2N2CCNCC2)c(C)c1.O=C(O)c1cc2ccccc2c(Cc2c(O)c(C(=O)O)cc3ccccc23)c1O` [Crystal form B of vortioxetine semi pamoic acid salt] [Crystal Form B Vortioxetine Semi Pamoic Acid Salt], for which the “Concentration of vortioxetine” value in series [1] (blood sampling time 0.5 h) was 2.14 ng/mL; in series [1] (blood sampling time 1 h) it was 4.56 ng/mL; in series [1] (blood sampling time 2 h), 10.17 ng/mL; in series [1] (blood sampling time 4 h) it was 18.05 ng/mL; in series [1] (blood sampling time 8 h) it was 21.12 ng/mL; in series [1] (blood sampling time 24 h), 17.67 ng/mL. The “Concentration of vortioxetine” value in series [1] (blood sampling time 48 h) turned out to be 14.56 ng/mL; in series [1] (blood sampling time 72 h) it was 15.65 ng/mL; in series [1] (blood sampling time 120 h), 32.47 ng/mL; in series [1] (blood sampling time 168 h), 40.21 ng/mL; in series [1] (blood sampling time 216 h), 24.00 ng/mL; in series [1] (blood sampling time 264 h), 15.19 ng/mL. The “Concentration of vortioxetine” value was 10.55 ng/mL in series [1] (blood sampling time 312 h), 6.02 ng/mL in series [1] (blood sampling time 360 h), 2.62 ng/mL in series [1] (blood sampling time 504 h) and 2.06 ng/mL in series [1] (blood sampling time 672 h). In addition, the “AUC(0-t), Mean” value in series [1] stood at 8588.42 ng·h/mL. Further, the “AUC(0-∞), Mean” value in series [1] is 8939.49 ng·h/mL. Besides, in series [1], the “Cmax, Mean” value was determined as 40.21 ng/mL. Moreover, in series [1], the “MRT(0-∞), Mean” value worked out at 226.30 h. For the same compound, in series [1], the “Tmax, Mean” value was 168 h. Besides, the “t1/2z, Mean” value in series [1] is on record as 116.6 h.
As for `Cc1ccc(Sc2ccccc2N2CCNCC2)c(C)c1.Cc1ccc(Sc2ccccc2N2CCNCC2)c(C)c1.O=C(O)c1cc2ccccc2c(Cc2c(O)c(C(=O)O)cc3ccccc23)c1O` [Crystal form D of vortioxetine semi pamoic acid salt] [Crystal Form D Vortioxetine Semi Pamoic Acid Salt], the “Concentration of vortioxetine” value in series [1] (blood sampling time 0.5 h) was 4.34 ng/mL; in series [1] (blood sampling time 1 h) it was 8.10 ng/mL; in series [1] (blood sampling time 2 h), 11.59 ng/mL; in series [1] (blood sampling time 4 h), 15.37 ng/mL; in series [1] (blood sampling time 8 h), 23.28 ng/mL; in series [1] (blood sampling time 24 h), 24.08 ng/mL. The “Concentration of vortioxetine” value in series [1] (blood sampling time 48 h) is given as 14.11 ng/mL; in series [1] (blood sampling time 72 h), 19.52 ng/mL; in series [1] (blood sampling time 120 h), 41.99 ng/mL; in series [1] (blood sampling time 168 h), 46.20 ng/mL; in series [1] (blood sampling time 216 h) it was 16.02 ng/mL; in series [1] (blood sampling time 264 h) it was 5.66 ng/mL. Moreover, the “Concentration of vortioxetine” value in series [1] (blood sampling time 312 h) worked out at 3.66 ng/mL; in series [1] (blood sampling time 360 h) it was 2.03 ng/mL; in series [1] (blood sampling time 504 h), 1.56 ng/mL; in series [1] (blood sampling time 672 h), 1.69 ng/mL. Further, in series [1], the “AUC(0-t), Mean” value is 7856.57 ng·h/mL. The “AUC(0-∞), Mean” value in series [1] was determined as 8392.02 ng·h/mL. For the same compound, the “Cmax, Mean” value in series [1] was determined as 48.65 ng/mL. Further, the “MRT(0-∞), Mean” value in series [1] is 162.48 h. The “Tmax, Mean” value in series [1] is on record as 152.00 h. Moreover, the “t1/2z, Mean” value in series [1] came to 228.84 h.
`Cc1ccc(Sc2ccccc2N2CCNCC2)c(C)c1` [vortioxetine, 1-[2-(2,4-dimethylphenylthiorueaalkyl)phenyl] piperazine]: the “half-life period t1/2” value in series [2] is listed as “more than two hours”.

The values above are taken from patent publication US10793536B2, “Vortioxetine pamoic acid salt and crystal form thereof” (SHANGHAI SYNERGY PHARMACEUTICAL SCIENCES CO., LTD, priority 2016, dated 2020).
